What was measured:
Format in all cases: cell-based, human
BCAT1 expression = experiment: BCAT1 RNA and protein expression (qRT-PCR, Western blot) in glioma cell lines; conditions: increasing concentration of dimethyl-alpha-KG in the culture medium (5 mM or 10 mM)
Procedure: Total RNA was extracted using the AllPrep DNA/RNA/Protein Mini Kit (Qiagen) according to the manufacturer's instructions. FirstChoice® Human Brain Reference Total RNA from Ambion served as normal brain RNA pool (n=23 donors). Total RNA (500 ng) was reverse-transcribed using random primers and superscript II (Invitrogen, Karlsruhe, Germany) according to the manufacturer's instructions. Each complimentary DNA sample was analysed in triplicate with the Applied Biosystems Prism 7900HT Fast Real-Time PCR System (Applied Biosystems, Foster City, Calif., USA) using Absolute SYBR Green ROX Mix (ABgene, Epsom, UK). The relative amount of specific mRNA was normalised to ARF, B2M and TBP.
All experiments involving the use of human tissues are carries out in line with the guidelines of the institutional review board of the Medical Faculty at Heinrich Heine University Dusseldorf. Fresh frozen human tumor tissue samples and a non-neoplastic brain tissue sample were lysed in guanidine isothiocyanate solution (4M) using an ULTRA-TURRAX (IKA, Staufen, Germany) and subjected to CsCl-ultracentrifugation. […]
Infection of glioma cells with virus at an M.O.I. of 2 was carried out in the presence of 8 μg/ml of polybrene (Chemicon, Billerica, Mass., USA). […] Quantification of BCAT1 and IDH1 knockdown was assessed by quantitative real-time PCR and Western blot. […]

U-373MG cells = experiment: 1H-NMR spectroscopy of cell extracts, intracellular BCAA levels; conditions: 20 mM gabapentin for 20 hours vs control
Procedure: (§1) (i) Treatment with dimethyl-α-ketoglutarate and Gabapentin 5×10^4 cells/well were seeded in 24-well plates in a total volume of 500 μl cell culture medium. The medium was removed 16 hours after seeding the cells, and replaced with 500 μl medium containing 5 mM or 10 mM dimethyl-α-ketoglutarate (Dimethyl 2-oxoglutarate; Sigma-Aldrich) or 5 mM, 10 mM or 20 mM gabapentin ([…]; Sigma-Aldrich). Corresponding volumes of 200 mM HEPES buffer (pH 7.4) were added to the respective control wells.
(§2) Cells were harvested by trypsinization, washed once with ice-cold PBS, and the cell pellet was frozen at −80° C. Typically 1×10^8 harvested cells were subjected to perchloric acid extraction followed by KOH neutralization according to published protocols^50. Briefly, 2 mL of ice-cold 1 N HClO4 were added to a frozen pellet of harvested cells. The pellet was disrupted using a Teflon pestle and a glass homogeniser. 1 mL of ice-cold water was added to the lysate, vortexed for 90 s and centrifuged at 10000×g for 10 min at 4° C. The pellet was re-extracted and the supernatants were combined. The extract was neutralised with KOH and the pH was adjusted to 6.5-7.0 Precipitated KClO4 was pelleted at 25000×g for 20 min and the supernatant was lyophilised.
(§3) The lyophilised extract residues were dissolved in 0.5 ml of a D2O buffer (99.9% D) containing 30 mM sodium phosphate and 0.1 mM sodium azide (pH 7.02). For quantitative analysis a reference capillary (1.5 mm OD, 0.99 mm ID) was filled with a solution of 11 mM trimethylsilyl-2,2,3,3-tetradeuteropropanoic acid (TSP, sodium salt) in the D2O buffer described above. Subsequently, the capillary was sealed in the flame of a Bunsen burner. A calibration solution was prepared by placing weighed amounts of glucose and citric acid in the D2O buffer to give the calculated concentrations of 10.49 mM glucose and 4.95 […]. ^1H-NMR spectra of the calibration solution+capillary were acquired at 600 MHz (Avance AV-600, Bruker BioSpin GmbH) using a standard 5-mm NMR tube and a triple-resonance inverse probe under the same conditions to be used for the extracts (20° C., presaturation of residual HDO signal, repetition time TR=7 s, 30° flip angle). […] Cell extracts were measured with the calibrated reference capillary inserted (512 transients in 1 hour), and the ^1H-NMR signals for the branched-chain amino acids, various metabolites, and the TSP reference were integrated. The TSP integral was defined as 4.60 mM so that the metabolite signal integrals gave directly the metabolite concentrations in mM (μmol/ml) for the 0.5 ml volumes used.

U-87MG cells = experiment: as above; conditions: 20 mM gabapentin for 20 hours vs control
Procedure: as §1, §2, §3

[1] = tested on: glioblastoma cell lines U87-MG, HS683 and U373-MG; experiment: Click-iT EdU cell proliferation assay after gabapentin treatment; conditions: concentration-dependent
Procedure: as §1
To assess the proliferation of glioma cells after treatment with gabapentin or after lentiviral knockdown, the Click-iT® EdU cell proliferation assay (Invitrogen, Karlsruhe, Germany) was used following the manufacturer's instructions. The cells were incubated with 10 μM of the nucleoside analog EdU (5-ethynyl-2′deoxyuridine) for 16 hours. Quantification of cells that incorporated EdU was performed using FACS Canto II (BD Biosciences).
The human glioblastoma cell lines U87-MG (HTB-14), HS683 (HTB-138) and U373-MG (HTB-17; LGC Standards, Teddington TW11 0LY U.K.) were cultured in Dulbecco's Minimal Essential Medium supplemented with 10% fetal calf serum and 1% penicillin/streptomycin-mix. 5×10^4 cells/well were seeded in 24 well plates in a total volume of 500 μl cell culture medium. […]

HS683 = experiment: Cell-cycle analysis (propidium iodide, flow cytometry), sub-G1 fraction; conditions: HS683, 20 mM, 20 hours after treatment
Procedure: (§4) Cell-cycle analysis was performed 20 hours after treatment with gabapentin and 6 days after lentiviral transduction. Nicoletti buffer (0.1% sodium citrate, pH7.4, 0.05% Triton X-100, 50 μg propidium iodide) was added to the wells containing both dead and living cells. After 4 hours in the dark at 4° C., DNA content was analysed by flow cytometry using FACS Canto II (BD Biosciences, San Jose, Calif., USA). FACS Diva software was used to quantify the distribution of cells in each cell-cycle phase: sub-G1 (dead cells), G1, S, and G2/M. For investigation of apoptotic activity after lentivira knockdown NCH421k cells were incubated with annexin V-P (Phycoerythrin) and 7-AAD (7-aminoactinomycin D, BD Biosciences) for 15 minutes in the dark, immediately followed by flow cytometry.

U373-MG = experiment: as above; conditions: 20 mM, 20 hours after treatment
Procedure: as §4

U87-MG = experiment: as above; conditions: 20 mM, 20 hours after treatment
Procedure: as §4

glioma cells = experiment: Glutamate quantification in supernatant of gabapentin-treated cells; conditions: 20 mM, 6 and 12 hours after start of treatment
Procedure: as §1
Glutamate concentration in the supernatant of cells treated with gabapentin was determined using the glutamine/glutamate determination Kit (GLN-1; Sigma-Aldrich) according to the manufacturer's instructions. The reaction volumes were scaled down to 100 μl total volume and absorbance was measured in triplicate in a microplate (Corning° 96 Well Clear Flat Bottom UV-Transparent Microplate) using a Tecan Infinite M200 plate reader (Tecan, Austria). Data were normalised to the number of cells per well.

glioma cell lines = experiment: Cell-cycle analysis, G1 phase; conditions: gabapentin treatment, 20 hours
Procedure: as §4

COC(=O)CCC(=O)C(=O)OC [dimethyl-alpha-KG, Dimethyl 2-oxoglutarate]
BCAT1 expression (BCAT1 expression): upregulated

NCC1(CC(=O)O)CCCCC1 [Gabapentin, 1-(aminomethyl) cyclohexaneacetic acid]
increase of isoleucine (Ile) level, factor (U-373MG cells): 2.32 | increase of leucine (Leu) level, factor (U-373MG cells): 2.18 | increase of valine (Val) level, factor (U-373MG cells): 1.83 | increase of isoleucine (Ile) level, factor (U-87MG cells): 1.19 | increase of leucine (Leu) level, factor (U-87MG cells): 1.38 | increase of valine (Val) level, factor (U-87MG cells): 1.09 | reduction of cell proliferation ([1]; 5, 10 and 20 mM, all cell lines, vs mock treated cells (Example 2)): 20-55% | reduction of proliferation, estimated based on EdU-incorporation ([1]; 20 hours (Example 9, FIG. 6a)): up to 56% | Average sub-G1 (HS683): 10.1% | Average sub-G1 (U373-MG): 2.8% | Average sub-G1 (U87-MG): 2.4% | Glutamate release (glioma cells): significantly reduced | cell cycle effect (fraction of cells in G1-phase) (glioma cell lines): partial G1-arrest
